In US20230116972A1, “CD38 MODULATORS AND METHODS OF USE THEREOF” (Cytokinetics, Inc., priority 2021, published 2023):

Experiments:
mouse CD38 = target: T1, mouse CD38 (Mus musculus, UniProt P56528); assay: mouse recombinant CD38 enzyme assay (hydrolysis of NAD+); format: biochemical; conditions: read-out: mCD38 BioChem IC50
T1 sequence (P56528 1-304): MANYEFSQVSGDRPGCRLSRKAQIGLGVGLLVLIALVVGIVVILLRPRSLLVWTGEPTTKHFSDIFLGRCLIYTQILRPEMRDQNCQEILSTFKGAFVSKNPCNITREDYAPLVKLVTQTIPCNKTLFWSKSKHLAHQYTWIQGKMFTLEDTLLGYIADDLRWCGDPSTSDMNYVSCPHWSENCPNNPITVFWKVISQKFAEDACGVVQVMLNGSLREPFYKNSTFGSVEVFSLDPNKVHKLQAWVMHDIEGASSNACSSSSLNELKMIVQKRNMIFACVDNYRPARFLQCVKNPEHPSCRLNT
Method in brief: (§1)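 Recombinant human or mouse CD38 hydrolyzing NAD+ in a cell-free buffered system. Dose-responses were run for 60 min at ambient temperature. Remaining NAD+ was converted to NADH by alcohol dehydrogenase, which drove diaphorase reduction of resazurin to resorufin, read at 540/590 nm.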

human CD38 = target: T2, human CD38 (Homo sapiens, UniProt P28907); assay: human recombinant CD38 enzyme assay (hydrolysis of NAD+); format: biochemical; conditions: human recombinant CD38, 0.4 nM enzyme, 62.5 μM NAD+; read-out: hCD38 BioChem IC50
T2 sequence (P28907 1-300): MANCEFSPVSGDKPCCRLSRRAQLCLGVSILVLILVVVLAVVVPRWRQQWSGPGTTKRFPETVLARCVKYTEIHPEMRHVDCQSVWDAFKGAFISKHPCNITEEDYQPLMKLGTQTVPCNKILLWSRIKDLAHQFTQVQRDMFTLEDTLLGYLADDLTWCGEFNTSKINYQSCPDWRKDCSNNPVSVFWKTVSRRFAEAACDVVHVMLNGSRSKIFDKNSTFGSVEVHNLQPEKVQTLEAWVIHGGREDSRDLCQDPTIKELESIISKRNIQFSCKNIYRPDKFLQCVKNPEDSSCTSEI
Method in brief: as §1

[1] = target: T3, endogenous CD38 in HL60 cells (Homo sapiens, UniProt P28907); assay: cellular CD38 assay in HL60 cells (cellular NAD levels); format: cell-based; conditions: all-trans retinoic acid, 24 hours, read-out: hCD38 HL60 ATRA NAD Cell Diaphorase IC50
T3 construct: endogenous in cells; host or cells: HL60 (leukemic cells, treated with all-trans retinoic acid)
T3 sequence (P28907 1-300): T2 sequence (P28907 1-300)
Protocol: The compounds described herein were also assayed for their ability to inhibit the endogenous CD38 in a native cellular environment in the cellular CD38 assay, which measures the ability of the compound to modulate cellular NAD levels. […] The assays were initiated by plating 20 μL of HL60 cells in culture medium, at a density of 20000 cells per well to a 384-well Corning™ Multiwell Plates. Compounds in DMSO were added to the plates in a volume of 120 nL using the Labcyte Echo Liquid Handlers. […] The plates are then incubated for 24 hours. 50 μL of a readout-solution containing 0.2 U/mL Diaphorase enzyme, 40 uM resazurin, 10 uM FMN, 0.8 U/mL Alcohol dehydrogenase, 3% ethanol, 0.4 mg/mL bovine serum albumin, 0.2% Triton X-100 in 100 mM Tris-HCl, 30 mM EDTA, pH 8.4. The plates were read for fluorescence (Excitation/Emission=540 nm/590 nm) using an EnVision plate reader after 60 mins of incubation at ambient temperature. Note that, in Table 5, the “Compound No” corresponds to the compound numbers in Table 1.

IC50 (mouse CD38) [nM]	IC50 (human CD38) [nM]	IC50 [1] [nM]	Structure (SMILES)
6	16	1320	O=C(N[C@H]1CC[C@H](C(F)F)CC1)c1ccnc(-n2ccnc2)n1 [Compound 68, N-((1r,4r)-4-(difluoromethyl)cyclohexyl)-2-(1H-imidazol-1-yl)pyrimidine-4-carboxamide]
2	3	481	Cn1cncc1-c1nccc(C(=O)Nc2ccc(C(F)(F)F)nc2)n1 [Compound 69, 2-(1-methyl-1H-imidazol-5-yl)-N-(6-(trifluoromethyl)pyridin-3-yl)pyrimidine-4-carboxamide]
19	4	295	O=C(Nc1ccc(C(F)(F)F)nc1)c1nccc(-n2ccnc2)n1 [Compound 72, 4-(1H-imidazol-1-yl)-N-(6-(trifluoromethyl)pyridin-3-yl)pyrimidine-2-carboxamide]
10	3	349	Cn1cncc1-c1ccnc(C(=O)Nc2ccc(C(F)(F)F)nc2)n1 [Compound 74, 4-(1-methyl-1H-imidazol-5-yl)-N-(6-(trifluoromethyl)pyridin-3-yl)pyrimidine-2-carboxamide]
19	41	1360	Cn1cncc1-c1ccnc(C(=O)N[C@H]2CC[C@H](C(F)F)CC2)n1 [Compound 75, N-((1r,4r)-4-(difluoromethyl)cyclohexyl)-4-(1-methyl-1H-imidazol-5-yl)pyrimidine-2-carboxamide]
6	11	2770	Cn1cncc1-c1nccc(C(=O)N[C@H]2CC[C@H](C(F)(F)F)CC2)n1 [Compound 83, 2-(1-methyl-1H-imidazol-5-yl)-N-((1r,4r)-4-(trifluoromethyl)cyclohexyl)pyrimidine-4-carboxamide]
2	12	1110	CO[C@H]1CC[C@H](NC(=O)c2ccnc(-c3cncn3C)n2)CC1 [Compound 84, N-((1r,4r)-4-methoxycyclohexyl)-2-(1-methyl-1H-imidazol-5-yl)pyrimidine-4-carboxamide]
2	7	765	Cn1cncc1-c1nccc(C(=O)N[C@H]2CC[C@H](C)CC2)n1 [Compound 85, 2-(1-methyl-1H-imidazol-5-yl)-N-((1r,4r)-4-methylcyclohexyl)pyrimidine-4-carboxamide]
219	194	8810	O=C(Nc1ccc(C(F)(F)F)nc1)c1ccnc(-c2cncs2)n1 [Compound 86, 2-(thiazol-5-yl)-N-(6-(trifluoromethyl)pyridin-3-yl)pyrimidine-4-carboxamide]

The remaining lines, values behind:

Structure (SMILES)	IC50 (mouse CD38) [nM]	IC50 (human CD38) [nM]	IC50 [1] [nM]
COCCO[C@H]1CC[C@H](NC(=O)c2cc(C(F)(F)F)cc(-n3ccnc3)n2)CC1 [Compound 61, 6-(1H-imidazol-1-yl)-N-(4-(2-methoxyethoxy)cyclohexyl)-4-(trifluoromethyl)picolinamide]	13	73	7850
O=C(N[C@H]1CC[C@H](O)CC1)c1cc(C(F)(F)F)cc(-n2ccnc2)n1 [Compound 62, N-(4-hydroxycyclohexyl)-6-(1H-imidazol-1-yl)-4-(trifluoromethyl)picolinamide]	12	61	6710
O=C(NC1CCOC1)c1cccc(-n2ccnc2)n1 (stereo not drawn) [Compound 63, 6-(1H-imidazol-1-yl)-N-(tetrahydrofuran-3-yl)picolinamide]	163	404	5910
O=C(N[C@H]1CC[C@H](C(F)F)CC1)c1cccc(-n2ccnc2)n1 [Compound 64, N-(4-(difluoromethyl)cyclohexyl)-6-(1H-imidazol-1-yl)picolinamide]	7	34	2420
COCCO[C@H]1CC[C@H](NC(=O)c2cccc(-c3cncn3C)n2)CC1 [Compound 65, N-(4-(2-methoxyethoxy)cyclohexyl)-6-(1-methyl-1H-imidazol-5-yl)picolinamide]	62	224	7690
NC(=O)c1cncn1-c1cccc(C(=O)Nc2ccc(C(F)(F)F)nc2)n1 [Compound 66, 6-(5-carbamoyl-1H-imidazol-1-yl)-N-(6-(trifluoromethyl)pyridin-3-yl)picolinamide]	190	91	3430
O=C(Nc1ccc(C(F)(F)F)nc1)c1ccnc(-n2ccnc2)n1 [Compound 67, 2-(1H-imidazol-1-yl)-N-(6-(trifluoromethyl)pyridin-3-yl)pyrimidine-4-carboxamide]	9	4	409
Cn1cncc1-c1nccc(C(=O)N[C@H]2CC[C@H](C(F)F)CC2)n1 [Compound 70, N-((1r,4r)-4-(difluoromethyl)cyclohexyl)-2-(1-methyl-1H-imidazol-5-yl)pyrimidine-4-carboxamide]	1	5	770
Cn1cncc1-c1cccc(C(=O)Nc2ccc(C(F)(F)F)nc2)n1 [Compound 71, 6-(1-methyl-1H-imidazol-5-yl)-N-(6-(trifluoromethyl)pyridin-3-yl)picolinamide]	25	15	1440
O=C(N[C@H]1CC[C@H](C(F)F)CC1)c1nccc(-n2ccnc2)n1 [Compound 73, N-((1r,4r)-4-(difluoromethyl)cyclohexyl)-4-(1H-imidazol-1-yl)pyrimidine-2-carboxamide]	33	60	1990
Cn1cncc1-c1cccc(C(=O)N[C@H]2CC[C@H](C(F)F)CC2)n1 [Compound 77, N-(4-(difluoromethyl)cyclohexyl)-6-(1-methyl-1H-imidazol-5-yl)picolinamide]	32	131	3360
O=C(NC1CC2(C1)CC(F)(F)C2)c1ccnc(-n2ccnc2)n1 [Compound 78, N-(6,6-difluorospiro[3.3]heptan-2-yl)-2-(1H-imidazol-1-yl)pyrimidine-4-carboxamide]	16	79	1110
O=C(N[C@H]1CC[C@H](C(F)(F)F)CC1)c1ccnc(-n2ccnc2)n1 [Compound 79, 2-(1H-imidazol-1-yl)-N-((1r,4r)-4-(trifluoromethyl)cyclohexyl)pyrimidine-4-carboxamide]	12	21	2330
Cn1cncc1-c1nccc(C(=O)NC2CC3(C2)CC(F)(F)C3)n1 [Compound 82, N-(6,6-difluorospiro[3.3]heptan-2-yl)-2-(1-methyl-1H-imidazol-5-yl)pyrimidine-4-carboxamide]	3	10	1080
O=C(N[C@H]1CC[C@H](C(F)F)CC1)c1ccnc(-c2cncs2)n1 [Compound 87, N-((1r,4r)-4-(difluoromethyl)cyclohexyl)-2-(thiazol-5-yl)pyrimidine-4-carboxamide]	138	562	10100
O=C(N[C@H]1CC[C@H](C(F)F)CC1)c1cncc(-n2ccnc2)n1 [Compound 89, N-((1r,4r)-4-(difluoromethyl)cyclohexyl)-6-(1H-imidazol-1-yl)pyrazine-2-carboxamide]	10	22	915
